Data from publication PMC11016064, “One substrate many enzymes virtual screening uncovers missing genes of carnitine biosynthesis in human and mouse” (Nature Communications, 2024).
Like-named read-outs stand apart in the source and are kept apart here. One block for each molecule: values may come before it.

Assays:
[1] = target: T1, SHMT1 (Homo sapiens, UniProt P34896); experiment: TMABADH-coupled spectrophotometric aldolase assay (Km); 1H NMR; type: biochemical
T1 sequence (P34896 2-483): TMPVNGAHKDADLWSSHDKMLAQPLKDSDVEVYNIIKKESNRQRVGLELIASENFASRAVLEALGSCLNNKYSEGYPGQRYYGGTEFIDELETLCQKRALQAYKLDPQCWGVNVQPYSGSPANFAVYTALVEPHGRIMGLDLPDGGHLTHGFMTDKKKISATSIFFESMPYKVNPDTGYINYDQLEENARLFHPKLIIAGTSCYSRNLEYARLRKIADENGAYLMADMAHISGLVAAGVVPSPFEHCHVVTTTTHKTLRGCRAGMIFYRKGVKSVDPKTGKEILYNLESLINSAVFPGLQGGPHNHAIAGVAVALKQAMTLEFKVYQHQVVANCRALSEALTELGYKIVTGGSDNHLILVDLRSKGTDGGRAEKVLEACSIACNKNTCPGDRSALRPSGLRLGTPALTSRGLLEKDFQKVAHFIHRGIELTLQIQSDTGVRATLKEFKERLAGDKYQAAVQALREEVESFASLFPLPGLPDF

[2] = target: T2, KYAT1 (Homo sapiens, UniProt Q16773); experiment: spectrophotometric kynurenine aminotransferase assay at […] nm, Lineweaver-Burk; type: biochemical
T2 sequence (Q16773 1-422): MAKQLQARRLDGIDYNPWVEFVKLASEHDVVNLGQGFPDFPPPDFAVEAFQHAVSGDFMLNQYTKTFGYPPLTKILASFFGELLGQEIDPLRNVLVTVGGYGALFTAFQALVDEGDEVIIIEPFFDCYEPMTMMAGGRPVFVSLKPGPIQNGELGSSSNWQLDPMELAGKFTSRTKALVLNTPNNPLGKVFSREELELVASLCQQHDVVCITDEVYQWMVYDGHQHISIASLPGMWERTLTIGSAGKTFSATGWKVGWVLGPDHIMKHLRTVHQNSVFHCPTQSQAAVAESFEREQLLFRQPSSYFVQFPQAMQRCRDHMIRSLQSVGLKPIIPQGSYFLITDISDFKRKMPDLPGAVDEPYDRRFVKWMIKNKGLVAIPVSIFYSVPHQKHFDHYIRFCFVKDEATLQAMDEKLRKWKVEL

[3] = target: T3, SHMT2 (Homo sapiens, UniProt P34897); experiment: TMABADH-coupled spectrophotometric aldolase assay (Km); type: biochemical
T3 sequence (P34897 30-504): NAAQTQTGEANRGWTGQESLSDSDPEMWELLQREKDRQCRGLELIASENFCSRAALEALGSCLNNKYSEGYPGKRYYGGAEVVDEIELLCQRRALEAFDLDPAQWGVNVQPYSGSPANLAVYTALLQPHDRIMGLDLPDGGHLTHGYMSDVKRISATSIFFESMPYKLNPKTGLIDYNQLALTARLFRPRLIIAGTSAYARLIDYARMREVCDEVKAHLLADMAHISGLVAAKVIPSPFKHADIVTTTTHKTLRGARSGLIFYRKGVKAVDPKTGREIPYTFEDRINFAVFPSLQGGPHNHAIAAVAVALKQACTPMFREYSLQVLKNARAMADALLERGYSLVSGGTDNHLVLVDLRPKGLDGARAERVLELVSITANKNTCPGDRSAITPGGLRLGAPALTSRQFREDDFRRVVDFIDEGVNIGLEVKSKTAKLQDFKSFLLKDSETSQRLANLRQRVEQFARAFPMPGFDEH

[4] = target: T4, low-specificity threonine aldolase eTA (Escherichia coli, UniProt P75823); experiment: TMABADH-coupled spectrophotometric aldolase assay; type: biochemical
T4 construct: gene ltaE
T4 sequence (P75823 whole entry): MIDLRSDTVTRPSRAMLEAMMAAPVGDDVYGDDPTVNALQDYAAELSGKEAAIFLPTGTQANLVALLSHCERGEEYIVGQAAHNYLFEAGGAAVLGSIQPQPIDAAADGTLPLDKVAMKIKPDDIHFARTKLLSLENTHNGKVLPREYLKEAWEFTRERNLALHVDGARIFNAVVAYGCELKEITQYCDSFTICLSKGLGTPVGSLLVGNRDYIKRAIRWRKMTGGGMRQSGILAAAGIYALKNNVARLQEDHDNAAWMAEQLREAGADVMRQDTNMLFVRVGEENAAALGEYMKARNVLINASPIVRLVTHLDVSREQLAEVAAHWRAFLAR

[5] = target: T1, SHMT1; parameters: Threonine cleavage coupled to alcohol dehydrogenase, NADH depletion at 340 nm, Michaelis-Menten fit; details: substrate
Protocol: (§1) The HTMLA activity was measured by coupling the aldol cleavage of HTML with the oxidation of TMABA by NAD^+ catalyzed by TMABADH. The rate of the reaction was calculated from the rate of appearance in absorbance at 340 nm, due to the formation of NADH, using a value of ε340 = 6220 cm^−1·M^−1. The reaction was carried out using 1 µM SHMT1 or 4 µM SHMT2 in 50 mM potassium phosphate, pH 7.5, containing 1 mM EDTA, 5 mM 2-mercaptoethanol, 0.5 mM NAD^+ and 8 µM TMABADH, at 37 °C. For Tha1 (1 µM) and eTA (0.1 µM) we kept the same conditions but a different temperature (30 °C) due to their low stability at 37 °C. The rate of L-allo-threonine and threonine cleavage was measured by coupling the reaction with reduction of the product acetaldehyde by NADH and alcohol dehydrogenase. With L-allo-threonine as substrate were reduced the amount of SHMT enzymes, 0.15 µM for SHMT1 and 1 µM for SHMT2.The rate of the reaction was calculated from the rate of disappearance in absorbance at 340 nm, due to NADH depletion.

[6] = target: T3, SHMT2; parameters: Threonine cleavage coupled to alcohol dehydrogenase, NADH depletion at 340 nm, Michaelis-Menten fit; details: substrate
Protocol: as §1

[7] = target: T3, SHMT2
[8] = target: T5, threonine aldolase (Tha1) (Mus musculus, UniProt Q6XPS7)
T5 sequence (Q6XPS7 41-400): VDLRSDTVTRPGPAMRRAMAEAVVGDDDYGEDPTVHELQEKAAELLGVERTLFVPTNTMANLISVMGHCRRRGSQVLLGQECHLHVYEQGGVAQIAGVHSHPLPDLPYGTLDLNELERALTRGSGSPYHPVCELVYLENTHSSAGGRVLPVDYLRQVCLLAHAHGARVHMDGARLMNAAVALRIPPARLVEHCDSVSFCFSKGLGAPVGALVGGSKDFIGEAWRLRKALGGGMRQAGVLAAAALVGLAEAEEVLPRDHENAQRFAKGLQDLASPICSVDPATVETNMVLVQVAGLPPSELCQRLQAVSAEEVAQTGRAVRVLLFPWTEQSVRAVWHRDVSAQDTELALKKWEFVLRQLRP

[9] = target: T1, SHMT1
[10] = target: T5, threonine aldolase (Tha1); experiment: X-ray crystal structure (monoclinic C2 form); type: binding; parameters: without the first 40 amino acids (predicted mitochondrial signal)
[11] = substrate: C[N+](C)(C)CCC[C@H](O)[C@H](N)C(=O)[O-]; experiment: TMABADH-coupled spectrophotometric aldolase assay (Km); 1H NMR; type: biochemical, Mus musculus; details: PLP
[12] = substrate: C[C@@H](O)[C@H](N)C(=O)O; experiment: purified protein, by the assay type; parameters: Threonine cleavage coupled to alcohol dehydrogenase, NADH depletion at 340 nm, Michaelis-Menten fit; details: pH 7.5
Protocol: as §1

[13] = substrate: C[C@H](O)[C@H](N)C(=O)O; experiment: purified protein, by the assay type; parameters: Threonine cleavage coupled to alcohol dehydrogenase, NADH depletion at 340 nm, Michaelis-Menten fit; details: pH 7.5
Protocol: as §1

[14] = target: the molecule itself; experiment: crystal structure; sitting drop at 18 °C, 0.2 M sodium nitrate, 0.1 M Bis-Tris propane pH 8.5, 20% w/v PEG 3350; space groups F222 (one molecule in the ASU) and C2 (two molecules in the ASU); tetramer formed by crystallographic symmetries

Molecule: C[N+](C)(C)CCC[C@H](O)[C@H](N)C(=O)[O-] [HTML]
- Km [1]: 3.79 mM
- Ki [2]: 4 mM
- Km [3]: 0.8 mM
- TMABADH-coupled spectrophotometric aldolase assay [4]: Characterization of its catalytic efficiency for L-allo-threonine and HTML, showed high activity with both substrates

- Km [5]: 0.226 ± 0.017 mM
- Km [6]: 1.34 ± 0.115 mM
- alcohol dehydrogenase-coupled spectrophotometric aldolase assay (kcat/Km) [7]: ~ 10^2 s^-1 M^-1
- alcohol dehydrogenase-coupled spectrophotometric aldolase assay (kcat/Km) [8]: ~ 10^2 s^-1 M^-1
- alcohol dehydrogenase-coupled spectrophotometric aldolase assay (kcat/Km) [9]: ~ 10^4 s^-1 M^-1
Molecule: C[C@H](O)[C@H](N)C(=O)O [L-allo-threonine]

- Km [5]: 36.5 ± 2.48 mM
- Km [6]: 41.2 ± 3.43 mM
- alcohol dehydrogenase-coupled spectrophotometric aldolase assay (kcat/Km) [8]: ~ 10^1 s^-1 M^-1
Molecule: C[C@@H](O)[C@H](N)C(=O)O [L-threonine]

Molecule: Cc1ncc(COP(=O)(O)O)c(C=O)c1O [PLP]
- X-ray crystal structure (monoclinic C2 form) [10]: In Tha1, the PLP cofactor, bound to Lys242, is stabilized in the active site by a network of hydrogen bonds

B1: threonine aldolase (Tha1) (Mus musculus) (protein)
chain: T5 sequence (Q6XPS7 41-400)
notes: without the first 40 amino acids (predicted mitochondrial signal)
- Km [11]: 0.169 mM
- Km [12]: 37.531 ± 10.873 mM
- Km [13]: 8.236 ± 0.86 mM
- kcat/Km [13]: 238 ± 26.2 M⁻¹ s⁻¹

B2: mouse threonine aldolase (Tha1), truncated form without the first 40 amino acids (enzyme, UniProt Q6XPS7 41-400, looked up)
chain: T5 sequence (Q6XPS7 41-400)
modifications: PLP cofactor bound to Lys242 (visible only in the monoclinic structure)
notes: Threonine aldolase Tha1, Mus musculus, CDS NM_027919.4 without the first 40 amino acids (predicted mitochondrial signal); The plasmid was bought from GenScript; also called Htmla; hydroxytrimethyllysine aldolase; source: E. coli BL21 with pGRO7 (GroEL/GroES co-expressed), purified (HisTrap, Superdex 200 size exclusion); not shown: His tag (from the vector pET-28b)
- stoichiometry N [14]: 4
